Values after ≈ are worked out from the molar mass of the structure shown.
Columns and labels:
[1] = Lipophilicity, log D of the compound at pH 7.4; format: physicochemical; conditions: buffer
[2] = AUC in Sprague-Dawley rat at 10 mg/kg, po by HLPC-MS analysis; format: ADME, organism-based; conditions: in vivo
Mus musculus [3] = assay: Time at which unbound plasma concentration stays above cellular IDH1 R132H mutant inhibitory IC50 in HSD athymic nude mouse xenografted with human HCHZ2H1 cells; format: ADME, organism-based; conditions: in vivo
[4] = Solubility of the compound at pH 6.8; format: physicochemical; conditions: buffer
[5] = AUC (0 to 12 hrs) in nude mouse xenografted with human HMEX2838 cells at 100 mg/kg, po bid administered via gavage by LC-MS/MS analysis; format: ADME, organism-based; parameters: time < 12 hr, dose 100 mg/kg, route oral; conditions: in vivo
[6] = AUC (0 to 12 hrs) in nude mouse xenografted with human HMEX2838 cells at 300 mg/kg, po bid administered via gavage by LC-MS/MS analysis; format: ADME, organism-based; parameters: time < 12 hr, dose 300 mg/kg, route oral; conditions: in vivo
Mus musculus [7] = assay: Unbound Cmax in HSD athymic nude mouse xenografted with human HCHZ2H1 cells at 200 mg/kg, po administered as single dose by LC-MS/MS analysis; format: ADME, organism-based; conditions: in vivo
[8] = AUC (0 to 8 hrs) in nude mouse xenografted with human HMEX2838 cells at 100 mg/kg, po administered via gavage as single dose by LC-MS/MS analysis; format: ADME, organism-based; parameters: time < 8 hr, dose 100 mg/kg, route oral; conditions: in vivo
[9] = Ratio of drug level in brain to plasma in Sprague-Dawley rat at 5 mg/kg, iv by HPLC-MS analysis; format: ADME, organism-based; conditions: brain and plasma, read-out: BPR
in vivo [10] = conditions: C57BL/6, mouse, brain and plasma, po, 30 mg/kg
in vivo [11] = conditions: Sprague-Dawley, rat, brain and plasma, iv, 5 mg/kg
[12] = AUC in Sprague-Dawley rat plasma at 5 mg/kg, iv by HPLC-MS analysis; format: ADME, organism-based
[13] = AUC (0 to 24 hrs) in nude mouse xenografted with human HMEX2838 cells at 300 mg/kg, po administered via gavage as single dose by LC-MS/MS analysis; format: ADME, organism-based; parameters: dose 300 mg/kg, time < 24 hr, route oral; conditions: in vivo
[14] = AUC (0 to 8 hrs) in nude mouse xenografted with human HMEX2838 cells at 30 mg/kg, po administered via gavage as single dose by LC-MS/MS analysis; format: ADME, organism-based; parameters: dose 30 mg/kg, time < 8 hr, route oral; conditions: in vivo
Mus musculus [15] = assay: Unbound AUC (0 to 48 hrs) in HSD athymic nude mouse xenografted with human HCHZ2H1 cells at 200 mg/kg, po administered as single dose by LC-MS/MS analysis; format: ADME, organism-based; conditions: in vivo
[16] = AUC (0 to 12 hrs) in nude mouse xenografted with human HMEX2838 cells at 30 mg/kg, po bid administered via gavage by LC-MS/MS analysis; format: ADME, organism-based; parameters: time < 12 hr, dose 30 mg/kg, route oral; conditions: in vivo
[17] = Fraction absorbed of compound by PAMPA; format: ADME; conditions: read-out: Fabs
[18] = Ratio of drug level in brain to plasma in C57BL/6 mouse at 30 mg/kg, po measured at 1 hr by HPLC-MS analysis; format: ADME, organism-based; conditions: brain and plasma, read-out: BPR
[19] = Cmax in HSD athymic nude mouse xenografted with human HCHZ2H1 cells at 200 mg/kg, po administered as single dose by LC-MS/MS analysis; format: ADME, organism-based; parameters: dose 200 mg/kg, route oral; conditions: in vivo
[20] = AUC in Sprague-Dawley rat brain at 5 mg/kg, iv by HPLC-MS analysis; format: ADME, organism-based
[21] = AUC (0 to 48 hrs) in HSD athymic nude mouse xenografted with human HCHZ2H1 cells at 200 mg/kg, po administered as single dose by LC-MS/MS analysis; format: ADME, organism-based; parameters: dose 200 mg/kg, time < 48 hr, route oral; conditions: in vivo

With `Cc1cc(-c2cnc([C@H](C)Nc3nccc(N4C(=O)OC[C@@H]4C(C)C)n3)nc2)ccc1F` the logD [1] was 3.4 and the AUC [2] was 0.2 µM·h.

For `CC(C)[C@H]1COC(=O)N1c1ccnc(N[C@@H](C)c2ccc(-c3ccnc(C(F)(F)F)c3)cn2)n1`, the AUC [2] was 1.6 µM·h.

For `Cc1cc([C@H](C)Nc2nccc(N3C(=O)OC[C@@H]3[C@H](C)F)n2)ncc1-c1ccnc(C(F)(F)F)c1`, the Time (Mus musculus [3]) was > 12 h, the solubility [4] was 130 µM (≈ 63.8 µg/mL) and the AUC at 12 h [5] was 19.2 µM·h. The AUC at 12 h [6] was 88.9 µM·h, the fCmax (Mus musculus [7]) was 1.88 µM and the AUC(0-t) at 8 h [8] was 71.9 µM·h. It also gave a logD [1] of 2.8, a Kp [9] of 0.61 and a Kp uu at 1 h (in vivo [10]) of 0.17. For the same compound, the Kp uu (in vivo [11]) was 0.18, the AUC [12] was 5.5 µM·h and the AUC(0-t) at 24 h [13] was 212 µM·h. For the same compound, the AUC(0-t) at 8 h [14] was 10.1 µM·h, the fAUC (Mus musculus [15]) was 17.3 µM·h and the AUC at 12 h [16] was 5.4 µM·h. For the same compound, the Fa [17] was 99.3%, the Kp at 1 h [18] was 0.29 and the Cmax [19] was 16.2 µM. It also gave an AUC [20] of 3.4 µM·h, an AUC(0-t) at 48 h [21] of 149 µM·h and an AUC [2] of 6.2 µM·h.

In the case of `Cc1cc(-c2cnc([C@H](C)Nc3nccc(N4C(=O)OC[C@@H]4C(C)C)n3)cn2)ccc1F`, the solubility [4] is reported as < 5 µM.

Compound `Cc1cc(-c2ccc([C@H](C)Nc3nccc(N4C(=O)OC[C@@H]4C(C)C)n3)nc2)ccn1` has a solubility [4] of 430 µM (≈ 180 µg/mL).

From ChEMBL document CHEMBL4130531 (ACS Med Chem Lett, 2017)
